Experimental data reported in patent US10188718B2, “Vaccines against Streptococcus pneumoniae serotype 4” (MAX-PLANCK-GESELLSCHAFT ZUR FÖRDERUNG DER WISSENSCHAFTEN …, priority 2014, dated 2019).
Entries after “also recorded” stand apart in the source; their conditions may differ.

System: human reference serum 007sp
Test: Glycan array, antibody binding from human reference serum 007sp with CPS/CWPS competition
Settings: glycan array competition experiment, serum 007sp (FIG. 5, FIG. 6), 24* compared with 16*
Experimental: Pyruvated SP4 tetrasaccharide 24* was dissolved at 10 mM in water and diluted to 100 μM and 50 μM in coupling buffer (50 mM sodium phosphate, pH 8.5). Each concentration was spotted in duplicates to CodeLink activated glass slides (Surmodics) alongside a number of related structures and native polysaccharides (see FIG. 4 for printing pattern) using a Scienion S3 microarray printer at 65% relative humidity. The slides were incubated in a humidity saturated chamber overnight. They were washed twice with water and quenched by incubation with 100 mM ethanolamine, 50 mM sodium phosphate pH 9 for one hour at room temperature. They were washed again twice, dried by centrifugation and stored at 4° C. until use.
Slides were blocked by incubation with 1% BSA-PBS at room temperature, washed twice with PBS and dried by centrifugation. A 64 well incubation gasket was attached to the glass slides.
Sera (rabbit SP4 typing serum (SSI Diagnostica, Denmark) or human reference serum 007sp (Clin. Vaccine Immunol. 2011 18 (10), 1728)) were diluted in 1% BSA-PBS containing no competitors or native SP4 CPS (capsular polysaccharide) or CWPS (S. pneumoniae cell wall polysaccharide) as competitors. […] It was dried by centrifugation and the fluorescence was read out using s GenePix 4300a fluorescence reader.

In the case of `CC(=O)N[C@@H]1[C@H](O[C@@H]2[C@H](O)[C@H](C)O[C@@H](O[C@H]3[C@@H](O)[C@@H](CO)O[C@H](O[C@@H]4[C@H](O)[C@@H](O)[C@@H](OCCCCCN)O[C@@H]4CO)[C@@H]3NC(C)=O)[C@H]2NC(C)=O)O[C@H](CO)[C@@H](O)[C@@H]1O` [compound 16*, N-((2R,3S,4R,5S,6R)-2-(((2S,3S,4S,5R,6S)-3-acetamido-2-(((2R,3R,4R,5R,6R)-3-acetamido-2-(((2R,3R,4R,5R,6S)-6-((5-aminopentyl)oxy)-4,5-dihydroxy-2-(hydroxymethyl)tetrahydro-2H-pyran-3-yl)oxy)-5-hydroxy-6-(hydroxymethyl)tetrahydro-2H-pyran-4-yl)oxy)-5-hydroxy-6-methyltetrahydro-2H-pyran-4-yl)oxy)-4,5-dihydroxy-6-(hydroxymethyl)tetrahydro-2H-pyran-3-yl)acetamide], the “inhibition (decline) of signal by native S. pneumoniae serotype 4 CPS” value is reported as “Compared to unpyruvated tetrasaccharide 16*, the signal for the pyruvated saccharide 24* can be inhibited far more efficiently; also recorded: much stronger for pyruvated tetrasaccharide 24* (spot B) compared with unpyruvated tetrasaccharide 16*”.
